4 molecules from US8754106B2, “Macrocyclic inhibitors of hepatitis C virus” (Tibotec Pharmaceuticals Ltd., priority 2005, dated 2014) can be followed below.

Series [1] is described as follows: Oral pharmacokinetics of Compound nr. 47 in rat with ritonavir boosting. Type of series: in vivo, Sprague-Dawley rats. The conditions noted are these: single oral 10 mg/kg Compound nr. 47 in 50% PEG400/water, boosted with 10 mg/kg ritonavir about 30 minutes before, plasma. The method, then:
Oral pharmacokinetics of Compound nr. 47 in male and female Sprague-Dawley rats after a single dose at 10 mg/kg, using a formulation in 50% PEG400/water and the influence of “boosting” with 10 mg/kg ritonavir were investigated.
Four male and four female Sprague-Dawley (SD)-rats (approx. body weight 200-250 g) were randomly divided into 2 groups of 2 males and females each (boosted and non-boosted) based on body weight. […] The animals were fasted shortly before the trial. Drinking water remained available ad libitum.
Rats from the non-boosted group received a single oral 10 mg/kg dose of Compound nr. 47, formulated as a 3 mg/ml 50% PEG400/water at pH 8. Rats from the boosted group received a single oral dose of ritonavir, about 30 minutes before single oral dosing with 10 mg/kg of Compound nr. 47. The drug formulations were administered by oral gavage.
From each rat, a 0.5 ml blood sample was collected at 0.5 h, 1 h, 2 h, 4 h and 8 h after dosing. Plasma concentrations were determined using HPLC-MS. Results are shown in the table 2 below, expressed as fold change in pharmacokinetic parameter of the boosted group as compared to the non-boosted group.

Series [2] has as its system HCV replicons (Huh-Luc cells, NS3-NS5B regions of HCV type Ib). Description: Replicon assay (Huh-7 luc/neo cells, luciferase readout). The class given is cell-based. Particulars: three days incubation, luciferase activity. The text has this: The compounds of formula (I) were examined for activity in the inhibition of HCV RNA replication in a cellular assay. […] The cellular assay was based on a bicistronic expression construct, as described by Lohmann et al. (1999) Science vol. 285 pp. 110-113 with modifications described by Krieger et al. (2001) Journal of Virology 75: 4614-4624, in a multi-target screening strategy. In essence, the method was as follows.
The assay utilized the stably transfected cell line Huh-7 luc/neo (hereafter referred to as Huh-Luc). This cell line harbors an RNA encoding a bicistronic expression construct comprising the wild type NS3-NS5B regions of HCV type Ib translated from an Internal Ribosome Entry Site (IRES) from encephalomyocarditis virus (EMCV), preceded by a reporter portion (FfL-luciferase), and a selectable marker portion (neo^R, neomycine phosphotransferase). The construct is bordered by 5′ and 3′ NTRs (non-translated regions) from HCV type Ib. Continued culture of the replicon cells in the presence of G418 (neo^R) is dependent on the replication of the HCV RNA. The stably transfected replicon cells that express HCV RNA, which replicates autonomously and to high levels, encoding inter alia luciferase, are used for screening the antiviral compounds.
The replicon cells were plated in 384 well plates in the presence of the test and control compounds which were added in various concentrations. Following an incubation of three days, HCV replication was measured by assaying luciferase activity (using standard luciferase assay substrates and reagents and a Perkin Elmer ViewLux™ ultraHTS microplate imager). Replicon cells in the control cultures have high luciferase expression in the absence of any inhibitor. The inhibitory activity of the compound on luciferase activity was monitored on the Huh-Luc cells, enabling a dose-response curve for each test compound.
(In general: Replicon systems follow genome replication, usually without infectious particles.)

The target of the next series is HCV NS3/4A protease (Hepatitis C virus genotype 1a (isolate H77) (HCV), UniProt P27958). Description: Inhibition assay (enzymatic assay), depsipeptide substrate hydrolysis. The class given is biochemical. The conditions noted are these: full-length NS3 protease 1 nM, 25 μM NS4A cofactor, 0.5 μM substrate, competitive inhibition model. On the procedure:
[Landro, 1997 #Biochem 36 9340-9348]. […] The solutions were stored at −20° C. between measurements.
[Liu, 1999 Analytical Biochemistry 267 331-335].

Sequence of HCV NS3/4A protease (P27958 1027-1657): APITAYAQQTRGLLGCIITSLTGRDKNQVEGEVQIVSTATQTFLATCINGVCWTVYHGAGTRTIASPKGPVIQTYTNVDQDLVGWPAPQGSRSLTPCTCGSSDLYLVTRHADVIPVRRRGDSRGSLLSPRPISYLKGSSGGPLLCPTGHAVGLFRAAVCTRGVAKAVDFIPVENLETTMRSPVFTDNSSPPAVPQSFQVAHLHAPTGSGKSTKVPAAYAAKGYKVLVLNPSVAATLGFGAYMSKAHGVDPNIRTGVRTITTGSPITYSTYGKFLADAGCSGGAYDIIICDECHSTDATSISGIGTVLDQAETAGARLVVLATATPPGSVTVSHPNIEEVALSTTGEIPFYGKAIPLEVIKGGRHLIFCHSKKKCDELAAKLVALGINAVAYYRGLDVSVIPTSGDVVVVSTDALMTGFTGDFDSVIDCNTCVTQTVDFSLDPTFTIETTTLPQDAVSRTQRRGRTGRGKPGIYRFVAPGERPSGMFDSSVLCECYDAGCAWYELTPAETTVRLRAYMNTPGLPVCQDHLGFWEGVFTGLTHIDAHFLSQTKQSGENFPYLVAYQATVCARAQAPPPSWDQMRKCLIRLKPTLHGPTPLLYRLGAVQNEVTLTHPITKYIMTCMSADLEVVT

Turning to `COc1ccc2c(O[C@@H]3C[C@H]4C(=O)N[C@]5(C(=O)NS(=O)(=O)C6CC6)C[C@H]5/C=C\CCCCN(C)C(=O)[C@@H]4C3)cc(-c3nc(C(C)C)cs3)nc2c1C` [Compound 47, N-[17-[2-(4-isopropylthiazole-2-yl)-7-methoxy-8-methylquinolin-4-yloxy]-13-methyl-2,14-dioxo-3,13-diazatricyclo[13.3.0.0^4,6]octadec-7-ene-4-carbonyl](cyclopropyl)sulfonamide], the “Cmax, fold change of the boosted group as compared to the non-boosted group” value in series [1] is on record as 2.2 fold.

By EC50 is commonly meant the concentration giving half of the maximal effect. A lower EC50 goes with an effect from little substance. `CCc1c(OC)ccc2c(O[C@@H]3C[C@H]4C(=O)N[C@]5(C(=O)O)C[C@H]5/C=C\CCCCN(C)C(=O)[C@@H]4C3)cc(-c3nc(C(C)C)cs3)nc12` [Compound 71] displayed an EC50 in series [2] (Hepatitis C virus, Huh-7, 72 h) of 10 µM.

As a reminder, the Ki is the equilibrium dissociation constant of an inhibitor or competing ligand from its target. A low value points to a stronger hold on the target. Take `COc1ccc2c(O[C@H]3C[C@H]4C(=O)NCCCCC/C=C\[C@@H]5C[C@@]5(C(=O)O)NC(=O)[C@@H]4C3)cc(-c3nc(C(C)C)cs3)nc2c1C` [Compound 81]: the EC50 in series [2] (Hepatitis C virus, Huh-7, 72 h) turned out to be 10 µM. Moreover, the Ki on HCV NS3/4A protease was determined as 1000 nM.

For the molecule “N-[[18-[2-[4-(isopropyl)thiazol-2-yl]-7-methoxy-8-methylquinolin-4-yloxy]-2,15-dioxo-3,14,16-triazatricyclo[14.3.0.0^4,6]nonadec-7-en-4-yl]carbonyl]-(cyclopropyl)sulfonamide [Compound 91]”, the midpoint of the response in series [2], the EC50, lay at 0.00854 µM. Further, at HCV NS3/4A protease, the affinity, expressed as Ki, was 0.05 nM.
